The experiment addresses Sodium channel protein type 9 subunit alpha (Homo sapiens, UniProt Q15858). Kind of experiment: EFS-FRET Assay: This screen is used to determine the effects of compounds on human Nav1.7 channels, utilizing electrical field stimulation (EFS) system in 96-well plate format on FDSS (Hamamatsu Photonics) platform. The changes of membrane potential are monitored with FRET dye pair, DiSBAC2(3) and PTS 18.

The term IC50 denotes the concentration needed to halve the response being measured.

Bounds are passed on as bounds.

Sequence of Sodium channel protein type 9 subunit alpha (Q15858 whole entry): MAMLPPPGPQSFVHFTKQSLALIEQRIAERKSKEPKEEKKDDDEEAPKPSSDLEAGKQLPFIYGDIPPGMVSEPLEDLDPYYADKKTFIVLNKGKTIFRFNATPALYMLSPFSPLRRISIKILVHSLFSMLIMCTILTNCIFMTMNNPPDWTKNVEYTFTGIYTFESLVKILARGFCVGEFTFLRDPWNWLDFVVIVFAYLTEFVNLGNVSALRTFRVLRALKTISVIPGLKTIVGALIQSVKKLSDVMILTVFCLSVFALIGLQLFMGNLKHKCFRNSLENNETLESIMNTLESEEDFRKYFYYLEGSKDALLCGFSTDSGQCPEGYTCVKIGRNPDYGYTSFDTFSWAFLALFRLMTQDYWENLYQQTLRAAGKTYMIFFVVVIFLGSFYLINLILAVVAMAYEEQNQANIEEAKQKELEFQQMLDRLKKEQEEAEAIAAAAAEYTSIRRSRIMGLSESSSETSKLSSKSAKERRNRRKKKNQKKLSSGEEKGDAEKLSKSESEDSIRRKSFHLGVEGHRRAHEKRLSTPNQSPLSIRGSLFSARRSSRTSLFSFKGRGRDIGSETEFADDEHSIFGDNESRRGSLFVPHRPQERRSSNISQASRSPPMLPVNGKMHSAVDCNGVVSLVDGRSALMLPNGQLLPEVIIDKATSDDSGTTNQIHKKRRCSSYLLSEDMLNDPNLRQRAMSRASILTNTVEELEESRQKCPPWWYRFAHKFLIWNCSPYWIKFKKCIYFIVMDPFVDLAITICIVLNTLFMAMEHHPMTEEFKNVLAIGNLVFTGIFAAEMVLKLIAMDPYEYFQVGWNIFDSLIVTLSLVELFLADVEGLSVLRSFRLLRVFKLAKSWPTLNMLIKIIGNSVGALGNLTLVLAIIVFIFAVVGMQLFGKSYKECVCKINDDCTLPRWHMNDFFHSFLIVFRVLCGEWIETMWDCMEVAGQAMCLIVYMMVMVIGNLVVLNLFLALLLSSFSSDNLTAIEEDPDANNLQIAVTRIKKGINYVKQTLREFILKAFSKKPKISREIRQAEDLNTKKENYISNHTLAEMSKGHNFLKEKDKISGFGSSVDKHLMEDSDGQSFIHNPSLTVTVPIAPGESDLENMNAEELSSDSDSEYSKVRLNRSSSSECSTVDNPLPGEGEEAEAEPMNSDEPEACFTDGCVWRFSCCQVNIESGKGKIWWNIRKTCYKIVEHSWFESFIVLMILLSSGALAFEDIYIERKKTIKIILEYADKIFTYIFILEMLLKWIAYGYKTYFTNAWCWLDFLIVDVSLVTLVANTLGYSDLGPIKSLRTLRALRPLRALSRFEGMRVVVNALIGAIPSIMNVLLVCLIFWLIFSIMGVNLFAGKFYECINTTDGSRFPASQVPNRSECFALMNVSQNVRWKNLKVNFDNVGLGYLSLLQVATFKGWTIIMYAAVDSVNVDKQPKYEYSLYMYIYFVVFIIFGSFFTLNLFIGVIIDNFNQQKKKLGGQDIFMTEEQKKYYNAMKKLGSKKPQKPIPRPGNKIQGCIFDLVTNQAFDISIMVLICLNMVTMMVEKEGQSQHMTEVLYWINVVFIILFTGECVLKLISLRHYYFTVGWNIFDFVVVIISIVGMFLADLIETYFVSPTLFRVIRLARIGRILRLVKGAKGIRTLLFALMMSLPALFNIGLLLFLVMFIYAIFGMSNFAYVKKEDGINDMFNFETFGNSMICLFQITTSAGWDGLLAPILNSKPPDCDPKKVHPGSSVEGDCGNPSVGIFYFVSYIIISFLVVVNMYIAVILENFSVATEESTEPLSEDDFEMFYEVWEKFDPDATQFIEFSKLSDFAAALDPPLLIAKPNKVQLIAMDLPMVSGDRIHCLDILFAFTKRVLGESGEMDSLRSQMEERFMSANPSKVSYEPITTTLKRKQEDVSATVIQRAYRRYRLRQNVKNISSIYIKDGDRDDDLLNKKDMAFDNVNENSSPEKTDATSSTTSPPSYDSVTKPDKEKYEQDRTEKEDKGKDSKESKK

`CS(=O)(=O)NC(=O)c1ccc(COc2cc(-c3ccc(OCC4CC4)nc3)cc(C(F)(F)F)c2)cc1` came in with an IC50 of under 0.5 µM.

`O=C(NS(=O)(=O)C1CC1)c1ccc(COc2cccc(-c3ccc(OCC4CC4)nc3)c2)c(F)c1`: the IC50 is under 0.5 µM.

As to `CCS(=O)(=O)NC(=O)c1ccc(COc2cccc(-c3ccc(OCC4CC4)nc3)c2)c(F)c1`, the IC50 is under 0.5 µM.

The molecule `CS(=O)(=O)NC(=O)c1ccc(COc2cc(F)cc(-c3ccc(OCC4CC4)nc3)c2)cc1` showed an IC50 of under 0.5 µM.

With `Cc1nc(OCC2CC2)ccc1-c1cccc(OCc2ccc(C(=O)NS(C)(=O)=O)cc2)c1`, the IC50 was under 0.5 µM.

On to `CS(=O)(=O)NC(=O)c1ccc(COc2cccc(-c3ccc(OCC4CC4)nc3)c2)c(Cl)c1`, for which the IC50 is under 0.5 µM.

`CN(C)C(=O)c1cc(-c2cccc(OCc3ccc(C(=O)NS(C)(=O)=O)cc3F)c2)ccc1OCC1CC1` displayed an IC50 of under 0.5 µM.

Consider `O=C(NS(=O)(=O)C1CC1)c1ccc(COc2ccc(F)c(-c3ccc(OCC4CC4)nc3)c2)c(F)c1`, for which the concentration for half-maximal inhibition (IC50) was under 0.5 µM.

For `CS(=O)(=O)NC(=O)c1cc(C2CC2)c(COc2cccc(-c3ccc(OCC4CC4)nc3)c2)cc1F`, the IC50 is under 0.5 µM.

For the molecule `CS(=O)(=O)NC(=O)c1ccc(COc2cccc(-c3ccc(OCC4CCOC4)nc3)c2)c(F)c1` (stereo not drawn), the IC50 is under 0.5 µM.

The molecule `O=C(NS(=O)(=O)C1CC1)c1ccc(COc2cccc(-c3ccc(OCC4CC4)nc3)c2)cc1` yielded an IC50 of under 0.5 µM.

Take `O=C(NS(=O)(=O)c1nccs1)c1ccc(COc2cccc(-c3ccc(OCC4CC4)nc3)c2)cc1`: the IC50 was under 0.5 µM.

For `CS(=O)(=O)NC(=O)c1ccc(COc2cccc(-c3ncc(OCC4CC4)cc3F)c2)cc1`, the IC50 was under 0.5 µM.

`CS(=O)(=O)NC(=O)c1ccc(COc2cccc(-c3cnc(OCC4CC4)cn3)c2)cc1` came in with an IC50 of under 0.5 µM.

`CS(=O)(=O)NC(=O)c1ccc(COc2cc(-c3ccc(OCC4CC4)nc3)ccc2Cl)cc1` had an IC50 of under 0.5 µM.

`CS(=O)(=O)NC(=O)c1ccc(COc2cccc(-c3cncc(OCC4CC4)n3)c2)c(F)c1` displayed a 50% inhibitory concentration (IC50) of under 0.5 µM.

With `CS(=O)(=O)NC(=O)c1ccc(COc2cccc(-c3ccc(OCC4CCCC4)nc3)c2)cc1`, the half-maximal inhibitory concentration (IC50) is under 0.5 µM.

Turning to `CNC(=O)c1cc(-c2cccc(OCc3ccc(C(=O)NS(C)(=O)=O)cc3F)c2)ccc1OCC1CC1`, the concentration for half-maximal inhibition (IC50) is under 0.5 µM.

Consider `CC(C)(C)OC(=O)N1CCC(COc2ccc(-c3cccc(OCc4ccc(C(=O)NS(C)(=O)=O)cc4)c3)cn2)CC1`, for which the 50% inhibitory concentration (IC50) is under 0.5 µM.

With `CS(=O)(=O)NC(=O)c1ccc(COc2cc(-c3ccc(OCC4CC4)nc3)ccc2F)cc1`, the IC50 was under 0.5 µM.

Take `CS(=O)(=O)NC(=O)c1cc(F)c(COc2cccc(-c3ccc(OCC4CC4)nc3)c2)c(F)c1`: the half-inhibitory concentration (IC50) was under 0.5 µM.

As for `CS(=O)(=O)NC(=O)c1ccc(COc2cccc(-c3ccc(OCC4CC4)nc3)c2)cc1F`, the IC50 is under 0.5 µM.

`CS(=O)(=O)NC(=O)c1ccc(COc2ccc(F)c(-c3ccc(OCC4CC4)nc3)c2)cc1` yielded an IC50 of under 0.5 µM.

For the molecule `CS(=O)(=O)NC(=O)c1cc(Cl)c(COc2cccc(-c3ccc(OCC4CC4)nc3)c2)cc1F`, the half-maximal inhibitory concentration (IC50) was under 0.5 µM.

Consider `O=C(NS(=O)(=O)C(F)(F)F)c1ccc(COc2cccc(-c3ccc(OCC4CC4)nc3)c2)cc1`, for which the IC50 is under 0.5 µM.

`CS(=O)(=O)NC(=O)c1ccc(COc2ccc(Cl)c(-c3ccc(OCC4CC4)nc3)c2)c(F)c1` showed a concentration for half-maximal inhibition (IC50) of under 0.5 µM.

In the case of `CS(=O)(=O)NC(=O)c1ccc(COc2cc(F)cc(-c3ccc(OCC4CC4)nc3)c2)c(F)c1`, the concentration for half-maximal inhibition (IC50) is under 0.5 µM.

Molecule `CS(=O)(=O)NC(=O)c1cc(F)c(COc2cc(F)cc(-c3ccc(OCC4CC4)nc3)c2)cc1F` displayed an IC50 of under 0.5 µM.

On to `CS(=O)(=O)NC(=O)c1ccc(COc2cccc(-c3ccc(OCC4CCOCC4)nc3)c2)cc1`, for which the IC50 is under 0.5 µM.

For the molecule `CS(=O)(=O)NC(=O)c1ccc(COc2cccc(-c3ccc(OCC4CC(F)(F)C4)nc3)c2)cc1`, the half-maximal inhibitory concentration (IC50) is under 0.5 µM.

With `CS(=O)(=O)NC(=O)c1ccc(COc2cccc(-c3ccc(OCC4CC4)nc3)c2)nc1`, the 50% inhibitory concentration (IC50) was under 0.5 µM.

Consider `O=C(NS(=O)(=O)C1CC1)c1cc(Cl)c(COc2cccc(-c3ccc(OCC4CC4)nc3)c2)cc1F`, for which the IC50 was under 0.5 µM.

As to `CS(=O)(=O)NC(=O)c1ccc(COc2cccc(-c3cnc(OCC4CC4)cn3)c2)c(F)c1`, the IC50 was under 0.5 µM.

The molecule `CS(=O)(=O)NC(=O)c1ccc(COc2cc(F)cc(-c3ccc(OCC4CCOC4)nc3)c2)cc1` (stereo not drawn) returned a 50% inhibitory concentration (IC50) of under 0.5 µM.

Consider `CS(=O)(=O)NC(=O)c1ccc(COc2cccc(-c3cccnc3OCC3CC3)c2)cc1`, for which the half-inhibitory concentration (IC50) was under 0.5 µM.

In the case of `Cc1nc(OCC2CCC2)ccc1-c1cc(F)cc(OCc2ccc(C(=O)NS(C)(=O)=O)cc2)c1`, the half-inhibitory concentration (IC50) was under 0.5 µM.

In the case of `Cc1cc(OCC2CC2)ncc1-c1cccc(OCc2ccc(C(=O)NS(C)(=O)=O)cc2)c1`, the IC50 was under 0.5 µM.

The molecule `Cc1ccc(OCc2ccc(C(=O)NS(C)(=O)=O)cc2F)cc1-c1ccc(OCC2CC2)nc1` had a half-inhibitory concentration (IC50) of under 0.5 µM.

`COc1cc(C(=O)NS(C)(=O)=O)ccc1COc1cccc(-c2ccc(OCC3CC3)nc2)c1` displayed an IC50 of under 0.5 µM.

`CS(=O)(=O)NC(=O)c1ccc(COc2ccc(F)c(-c3ccc(OCC4CC4)nc3)c2)c(F)c1`: the concentration for half-maximal inhibition (IC50) was under 0.5 µM.

In turn, `O=C(NS(=O)(=O)CC1CC1)c1ccc(COc2cccc(-c3ccc(OCC4CC4)nc3)c2)c(F)c1` showed an IC50 of under 0.5 µM.

`O=C(NS(=O)(=O)C1CC1)c1ccc(COc2cc(-c3ccc(OCC4CC4)nc3)ccn2)cc1`: the IC50 is under 0.5 µM.

Consider `CS(=O)(=O)NC(=O)c1ccc(COc2cccc(-c3ccc(OCC4CCOCC4)nc3)c2)c(F)c1`, for which the IC50 is under 0.5 µM.

The molecule `CS(=O)(=O)NC(=O)c1ccc(COc2cccc(-c3ccc(OCC4CC4)nc3)c2)c(C#N)c1` displayed a concentration for half-maximal inhibition (IC50) of under 0.5 µM.

In turn, `Cc1cc(OCc2ccc(C(=O)NS(=O)(=O)C3CC3)cc2F)cc(-c2ccc(OCC3CC3)nc2)c1` came in with an IC50 of under 0.5 µM.

`CS(=O)(=O)NC(=O)c1cc(OC(F)F)c(COc2cccc(-c3ccc(OCC4CC4)nc3)c2)cc1F` came in with a half-maximal inhibitory concentration (IC50) of under 0.5 µM.

`CS(=O)(=O)NC(=O)c1ccc(COc2cccc(-c3ncc(OCC4CC4)cn3)c2)c(F)c1` gave an IC50 of under 0.5 µM.

In the case of `CS(=O)(=O)NC(=O)c1ccc(COc2cc(C#N)cc(-c3ccc(OCC4CC4)nc3)c2)cc1`, the IC50 was under 0.5 µM.

Regarding `CS(=O)(=O)NC(=O)c1ccc(COc2cccc(-c3ccn(CC4CC4)n3)c2)c(F)c1`, the concentration for half-maximal inhibition (IC50) was under 0.5 µM.

In the case of `Cc1nc(OCC2CC2)ccc1-c1cccc(OCc2ccc(C(=O)NS(C)(=O)=O)cc2F)c1`, the IC50 was under 0.5 µM.

The molecule `N#Cc1cc(C(=O)NS(=O)(=O)C2CC2)ccc1COc1cccc(-c2ccc(OCC3CC3)nc2)c1` came in with an IC50 of under 0.5 µM.

The molecule `CS(=O)(=O)NC(=O)c1ccc(COc2cccc(-c3cccc(OCC4CC4)n3)c2)cc1` returned a 50% inhibitory concentration (IC50) of under 0.5 µM.

`CS(=O)(=O)NC(=O)c1ccc(COc2ccc(Cl)c(-c3ccc(OCC4CC4)nc3)c2)cc1` displayed an IC50 of under 0.5 µM.

For the molecule `CC(C)S(=O)(=O)NC(=O)c1ccc(COc2cccc(-c3ccc(OCC4CC4)nc3)c2)c(F)c1`, the IC50 is under 0.5 µM.

On to `O=C(NS(=O)(=O)c1nccs1)c1ccc(COc2cccc(-c3ccc(OCC4CC4)nc3)c2)c(F)c1`, for which the IC50 is under 0.5 µM.

As to `O=C(NS(=O)(=O)C1CC1)c1ccc(COc2ccc(F)c(-c3ccc(OCC4CC4)nc3)c2)cc1`, the IC50 is under 0.5 µM.

As for `CS(=O)(=O)NC(=O)c1ccc(COc2cccc(-c3ncc(OCC4CC4)cc3Cl)c2)cc1`, the 50% inhibitory concentration (IC50) is under 0.5 µM.

The molecule `O=C(NS(=O)(=O)c1cccs1)c1cc(Cl)c(COc2cccc(-c3ccc(OCC4CC4)nc3)c2)cc1F` displayed a half-maximal inhibitory concentration (IC50) of under 0.5 µM.

Consider `O=C(NS(=O)(=O)c1cccs1)c1ccc(COc2cccc(-c3ccc(OCC4CC4)nc3)c2)cc1`, for which the half-inhibitory concentration (IC50) is under 0.5 µM.

With `CS(=O)(=O)NC(=O)c1ccc(COc2cc(-c3ccc(OCC4CC4)nc3)cc(C3CC3)c2)cc1`, the IC50 is under 0.5 µM.

Consider `O=C(NS(=O)(=O)C1CC1)c1ccc(COc2cccc(-c3ncc(OCC4CC4)cn3)c2)cc1`, for which the IC50 is under 0.5 µM.

In turn, `CS(=O)(=O)NC(=O)c1ccc(COc2cc(F)cc(-c3ccc(OCC4CC4)nc3)c2)nc1` had a concentration for half-maximal inhibition (IC50) of under 0.5 µM.

Turning to `O=C(NS(=O)(=O)C1CC1)c1ccc(COc2cc(F)cc(-c3ccc(OCC4CC4)nc3)c2)c(F)c1`, the IC50 is under 0.5 µM.

Turning to `CS(=O)(=O)NC(=O)c1ccc(COc2cccc(-c3ccc(OCC4CC4)nc3)c2F)cc1`, the half-maximal inhibitory concentration (IC50) was under 0.5 µM.

For the molecule `Cc1ccc(OCc2ccc(C(=O)NS(=O)(=O)C3CC3)cc2F)cc1-c1ccc(OCC2CC2)nc1`, the IC50 is under 0.5 µM.

For the molecule `CS(=O)(=O)NC(=O)c1ccc(COc2cccc(-c3cncc(OCC4CC4)c3)c2)cc1`, the 50% inhibitory concentration (IC50) is under 0.5 µM.

In the case of `Cc1cc(-c2cccc(OCc3ccc(C(=O)NS(C)(=O)=O)cc3)c2)cnc1OCC1CC1`, the concentration for half-maximal inhibition (IC50) is under 0.5 µM.

The molecule `CS(=O)(=O)NC(=O)c1ccc(COc2cccc(-c3ccc(OCC4CCC4)nc3)c2)cc1` gave an IC50 of under 0.5 µM.

In turn, `O=C(NS(=O)(=O)C1CC1)c1ccc(COc2cccc(-c3ccc(OCC4CCOCC4)nc3)c2)cc1` showed an IC50 of under 0.5 µM.

With `Cc1cc(OCc2ccc(C(=O)NS(C)(=O)=O)cc2F)cc(-c2ccc(OCC3CC3)nc2)c1`, the IC50 is under 0.5 µM.

In turn, `CS(=O)(=O)NC(=O)c1ccc(COc2cc(Cl)cc(-c3ccc(OCC4CC4)nc3)c2)cc1` had an IC50 of under 0.5 µM.

On to `CS(=O)(=O)NC(=O)c1ccc(COc2cccc(-c3ccc(OCC4CC4)nc3)n2)cc1`, for which the IC50 was under 0.5 µM.

Turning to `O=C(NS(=O)(=O)C1CC1)c1ccc(COc2cccc(-c3cnc(OCC4CC4)cn3)c2)cc1`, the half-inhibitory concentration (IC50) was under 0.5 µM.

`O=C(NS(=O)(=O)c1cccs1)c1ccc(COc2cccc(-c3ccc(OCC4CC4)nc3)c2)c(F)c1` gave an IC50 of under 0.5 µM.

`CS(=O)(=O)NC(=O)c1ccc(COc2cccc(-c3ccnc(OCC4CC4)c3)c2)cc1`: the concentration for half-maximal inhibition (IC50) was under 0.5 µM.

Take `CS(=O)(=O)NC(=O)c1ccc(COc2cccc(-c3ccc(OCC4CCC(F)(F)CC4)nc3)c2)cc1`: the half-maximal inhibitory concentration (IC50) was under 0.5 µM.

As for `CS(=O)(=O)NC(=O)c1ccc(COc2cc(Br)cc(-c3ccc(OCC4CC4)nc3)c2)cc1`, the IC50 was under 0.5 µM.

`CS(=O)(=O)NC(=O)c1ccc(COc2cccc(-c3ccc(OCC4CC4)cc3)c2)cc1` had an IC50 of under 0.5 µM.

The record behind these values is ChEMBL document CHEMBL5728485, “Biaryloxy derivatives as TTX-S blockers” (2021).
